These results are taken from patent US8551693B2 (priority 2008, dated 2013).

Where two headings read alike, the source gives them in different places.

Test [1] addresses T1, Nav1.5^Mut sodium channel (mutated human Nav1.5) (Homo sapiens, UniProt Q14524, F1486Q/K1419C).
T1 construct: expressed in transfected cells; host or cells: HEK293 cells stably expressing the Cameleon (Venus/CFP) calcium biosensor; clone VC/Nav1.5 #12
The test is classed as cell-based.
Description: VC/Nav1.5 #12 cells were incubated with different concentrations of quinidine (FIG. 6A), sertralin (FIG. 6B) or paroxetine (FIG. 6C), and a first fluorescence reading was performed, (FVenus/FCFP)0. 25 mM Ca^2+ was added to activate the channel and a second fluorescence reading was performed, (FVenus/FCFP)ca2+. […] Error bars represent the standard deviation of experiments performed in triplicate;
The fluorescence intensity was measured using a Packard Fusion™ Universal Microplate Analyzer. 75,000 cells per well were analyzed in a bath solution containing 140 mM NaCl, 2 mM KCl, 1.5 mM CaCl2, 1 mM MgCl2, 10 mM glucose, and 10 mM Na-HEPES. For calcium measurements, the bath solution contained: 140 mM NaCl, 2 mM KCl, 25 mM CaCl2, 10 mM glucose and 10 mM Na-HEPES. The pH of the bath solutions was adjusted to pH 7.4 using 1N NaOH.
Dose-response experiments in the presence of known sodium channel blockers (quinidine, sertralin and paroxetine) were performed.

Test [2] relates to VC #7 control Cameleon HEK293 cell line. Put plainly: Cameleon FRET fluorescence microplate assay in control Cameleon cell line VC #7 (does not express a sodium channel). The test is classed as cell-based, human. The following applies: VC #7 cell line that does not express a sodium channel; FIG. 4B. The source says:
The reporter cell lines described herein are derived from the HEK293 cell line, which, in turn, is derived from human embryonic kidney. […] To generate a Nav1.5^Mut/Cameleon reporter cell line, the first step was to establish a HEK293 cell line which expresses the Cameleon calcium biosensor alone. HEK293 cells were transfected with a vector (pIREShyg3, Clonetech, Cat. No. 631620) encoding the Cameleon construct (as described in Evanko and Haydon, Cell Calcium (2005) 37: 341-348). This cell line that express the Cameleon alone was then stably transfected with the pcDNA4neo-Nav1.5^Mut expression vector (see FIG. 7A for the sequence of Nav1.5^Mut). […] The resulting cell lines were then assessed in patch-clamp for their capacity to produce robust current amplitude.
Cameleon is a fluorescent biosynthetic Ca^2+ indicator constructed by inserting a Ca^2+ sensor (Calmodulin and M13, a calmodulin-binding protein) between two mutated forms of green fluorescent protein (GFP): the energy acceptor Venus, a derivative of yellow fluorescent protein (YFP), and the energy donor, cyan fluorescent protein (CFP) (Evanko D S and Haydon P G, Cell calcium 2005, 37: 341-348). Cameleon fluorescence is affected by differences in the concentration of Ca^2+ that alter the amount of fluorescence resonance energy transfer (FRET) between CFP and Venus. […]

The subject of test [3] is HEK293 Cameleon cell line (intracellular Ca2+). Put plainly: Confocal microscopy FRET ratio in HEK293 cell line stably expressing the Cameleon biosensor alone. The test is classed as cell-based, human. As to conditions: 10 μM ionomycin, ratio versus time, FIG. 3B. The method, then:
FIG. 3A: Individual Venus (right panel) and CFP (left panel) fluorescence image taken with a 40× objective. FIG. 3B: Plot of FRET ratio (Venus/CFP) versus time following addition of 10 μM ionomycin;
A HEK293 cell line stably expressing the Cameleon biosensor alone was treated with ionomycin (10 μM), a calcium ionophore, to raise the intracellular level of Ca^2+, and the FRET ratio was analysed by confocal microscopy.

Consider `Fc1ccc([C@@H]2CCNC[C@H]2COc2ccc3c(c2)OCO3)cc1` [paroxetine], for which, in test [1] (VC/Nav1.5 #12 cells, increasing doses of blocker, 25 mM Ca2+ added to activate the channel, compared to control cells receiving buffer only, FIG. 6), the “Delta FRET ratio signal, (FVenus/FCFP)Ca2+/(FVenus/FCFP)0” value is given as “decrease in the Delta FRET ratio signal”.
`C[C@H](CCC(=O)O)C[C@H](C)C[C@H](C)C(=O)/C=C(\O)[C@H](C)C[C@H](C)C/C=C/[C@@H](C)[C@@H](O)[C@@H](C)[C@@H](O)C[C@@H]1CC[C@@](C)([C@H]2CC[C@@](C)([C@@H](C)O)O2)O1` [ionomycin]: the “FRET response to treatment” value in test [1] (VC/Nav1.5 #12 and #14 cell lines, FIG. 4B) was “respond”; in test [2], “respond only to ionomycin”. The “FRET ratio (Venus/CFP)” value in test [3] is “increase in the Venus/CFP ratio”.
As for `C=C[C@H]1C[N@@]2CC[C@H]1C[C@@H]2[C@@H](O)c1ccnc2ccc(OC)cc12` [quinidine], the “Delta FRET ratio signal, (FVenus/FCFP)Ca2+/(FVenus/FCFP)0” value in test [1] is on record as “decrease in the Delta FRET ratio signal”.
On the same count and under the same terms, with `CN[C@H]1CC[C@@H](c2ccc(Cl)c(Cl)c2)c2ccccc21` [sertralin] the entry was “decrease in the Delta FRET ratio signal”.
